Assay type in all cases: in vivo
The subject of test [1] is Echinochloa crus-galli (ECHCG). In words: Pre-emergence test, herbicidal damage. To be noted: 1000 g/ha, evaluated after 13 days.
The test system of test [2] is Amaranthus palmeri (AMAPA). The experiment in a line: Pre-emergence test, herbicidal damage. Conditions: 1000 g/ha, evaluated after 13 days.
Test [3] has as its system Ipomoea hederacea (IPOHE). The experiment in a line: Pre-emergence test, herbicidal damage. To be noted: 1000 g/ha, evaluated after 13 days.
Test [4] has as its system Zea mays (ZEAMX). The experiment in a line: Pre-emergence test, herbicidal damage. To be noted: 1000 g/ha, evaluated after 13 days.
The test system of test [5] is Setaria faberi (SETFA). In words: Pre-emergence test, herbicidal damage. To be noted: 1000 g/ha, evaluated after 13 days.
Test [6] concerns Amaranthus retoflexus (AMARE). The experiment in a line: Pre-emergence test, herbicidal damage. Conditions: 1000 g/ha, evaluated after 13 days.
Test [7] deals with Setaria faberi (SETFA). In words: Post-emergence test, herbicidal damage. Conditions: sprayed after 8 days cultivation, 1000 g/ha, evaluated after 13 days. How it is done:
(§1) Seeds of a variety of test species are sown in standard soil in pots (Amaranthus retoflexus (AMARE), Echinochloa crus-galli (ECHCG), Amaranthus palmeri (AMAPA), Setaria faberi (SETFA), Zea mays (ZEAMX), Ipomoea hederacea (IPOHE)). After 8 days cultivation under controlled conditions in a glasshouse (at 24° C./16° C., day/night; 14 hours light; 65% humidity), the plants are sprayed with an aqueous spray solution derived from the formulation of the technical active ingredient in acetone/water (50:50) solution containing 0.5% Tween 20 (polyoxyethylene sorbitan monolaurate, CAS RN 9005-64-5). Compounds are applied at 1000 g/ha unless otherwise stated. The test plants are then grown in a glasshouse under controlled conditions in a glasshouse (at 24° C./16° C., day/night; 14 hours light; 65% humidity) and watered twice daily. After 13 days the test is evaluated for the percentage damage caused to the plant. The biological activities are shown in the following table on a five-point scale (5=81-100%; 4=61-80%; 3=41-60%; 2=21-40%; 1=10-20%; 0=0%; -=not tested).

The subject of test [8] is Ipomoea hederacea (IPOHE). In words: Post-emergence test, herbicidal damage. Conditions: sprayed after 8 days cultivation, 1000 g/ha, evaluated after 13 days. How it is done: as §1
Test [9] relates to Amaranthus palmeri (AMAPA). In words: Post-emergence test, herbicidal damage. Conditions: sprayed after 8 days cultivation, 1000 g/ha, evaluated after 13 days. How it is done: as §1
Test [10] concerns Zea mays (ZEAMX). The experiment in a line: Post-emergence test, herbicidal damage. Conditions: sprayed after 8 days cultivation, 1000 g/ha, evaluated after 13 days. How it is done:
as §1

Test [11] relates to Amaranthus retoflexus (AMARE). In words: Post-emergence test, herbicidal damage. Conditions: sprayed after 8 days cultivation, 1000 g/ha, evaluated after 13 days. As for the experimental part:
as §1

The subject of test [12] is Echinochloa crus-galli (ECHCG). In words: Post-emergence test, herbicidal damage. To be noted: sprayed after 8 days cultivation, 1000 g/ha, evaluated after 13 days. How it is done:
as §1

Experimental findings from patent US20250313549A1, “HERBICIDAL DERIVATIVES” (SYNGENTA CROP PROTECTION AG, priority 2021, published 2025) are described below.

In the case of `CCOC(=O)c1nn(-c2cc(OC)ncn2)c2cccc(Br)c2c1=O` [Compound 32, ethyl 5-bromo-1-(6-methoxypyrimidin-4-yl)-4-oxo-cinnoline-3-carboxylate], the “percentage damage caused to the plant, ECHCG” value in test [1] is 1 (1=10-20%); in test [12], 0 (0=0%). In addition, the “percentage damage caused to the plant, AMAPA” value is given as 0 (0=0%) in test [2] and 1 (1=10-20%) in [9]. The “percentage damage caused to the plant, IPOHE” value in [3] is recorded as 0 (0=0%); in [8] it was 1 (1=10-20%). Further, the “percentage damage caused to the plant, ZEAMX” value in the test with Zea mays (ZEAMX) [4] and in the test on Zea mays (ZEAMX) [10] was 0 (0=0%) each time. The “percentage damage caused to the plant, SETFA” value is reported as 1 (1=10-20%) in the test with Setaria faberi (SETFA) [5] and 0 (0=0%) with Setaria faberi (SETFA) [7]. Further, the “percentage damage caused to the plant, AMARE” value is 0 (0=0%) in [6] and 1 (1=10-20%) in [11].
Regarding `CCOC(=O)c1nn(-c2ncc(Cl)cn2)c2cccc(Br)c2c1=O` [Compound 34, ethyl 5-bromo-1-(5-chloropyrimidin-2-yl)-4-oxo-cinnoline-3-carboxylate], the “percentage damage caused to the plant, ECHCG” value in [1] and in test [12] was 0 (0=0%) in each case. For the same compound, the “percentage damage caused to the plant, AMAPA” value in test [2] and in test [9] was 1 (1=10-20%) in each case. For the same compound, the “percentage damage caused to the plant, IPOHE” value in test [3] was 0 (0=0%); in test [8], 3 (3=41-60%). Moreover, the entries for the “percentage damage caused to the plant, ZEAMX” value in the test on Zea mays (ZEAMX) [4] and in the test on Zea mays (ZEAMX) [10] were 0 (0=0%) and 1 (1=10-20%), respectively. In addition, the “percentage damage caused to the plant, SETFA” value is reported as 1 (1=10-20%) in the test on Setaria faberi (SETFA) [5] and 2 (2=21-40%) in the test on Setaria faberi (SETFA) [7]. Besides, the figures for the “percentage damage caused to the plant, AMARE” value in test [6] and in test [11] were 0 (0=0%) and 3 (3=41-60%), respectively.
For the compound `CCOC(=O)c1nn(-c2ccc(OC(F)F)nc2)c2cccc(Br)c2c1=O` [Compound 36, ethyl 5-bromo-1-[6-(difluoromethoxy)-3-pyridyl]-4-oxo-cinnoline-3-carboxylate], the “percentage damage caused to the plant, ECHCG” value in test [1] and in [12] was 0 (0=0%) throughout. The “percentage damage caused to the plant, AMAPA” value is 1 (1=10-20%) in [2] and 0 (0=0%) in test [9]. The “percentage damage caused to the plant, IPOHE” value was 0 (0=0%) in test [3] and 1 (1=10-20%) in test [8]. The “percentage damage caused to the plant, ZEAMX” value with Zea mays (ZEAMX) [4] was 1 (1=10-20%); with Zea mays (ZEAMX) [10], 0 (0=0%). Besides, the “percentage damage caused to the plant, SETFA” value in the test with Setaria faberi (SETFA) [5] and with Setaria faberi (SETFA) [7] was 1 (1=10-20%) in each case. Besides, the “percentage damage caused to the plant, AMARE” value in test [6] is recorded as 0 (0=0%); in test [11] it was 2 (2=21-40%).
